pIC50: −log10 of the molar value. Where two headings read alike, the source gives them in different places.
What was measured:
[1] = Parallel artificial membrane permeability assay (PAMPA); conditions: pH 7.4
Protocol: The PAMPA was performed using a Corning Gentest Pre-coated PAMPA Plate System at a pH of 7.4. It consists of 96-well polystyrene plates, whereas the donor-plate (bottom plate) is a conventional 96-well microtiter plate. The base of the acceptor-plate (top plate) consists of a porous membrane. The pores are lined with a lipid-oil-lipid trilayer. Stock solutions (10 mM) of each test compound were prepared in DMSO or MeOH and then further diluted to a final concentration of 200 µM with phosphate-buffered saline (PBS) at a pH of 7.4. Compound solutions were then added to the wells of the donor plate and pure PBS was added to each well of the acceptor plate. Compounds and negative control (pure PBS) were tested in quadruplicates. Donor and acceptor plate were coupled and incubated at ambient temperature for 5 h. After that, the plates were separated and solutions from each well of both plates were transferred onto 96-well UV-Star Microplates (Greiner Bio-One). The UV-absorption was measured at different wavelengths (between 200 and 300 nm) by a SpectraMax M3 UV plate reader (Molecular Devices). The concentrations were received from a calibration curve for each substance. The plates were analyzed at a wavelength were the R^2 value of the calibration curve was higher than 0.99 [48]. […] (2) cequ=cDt* VD+cAt* VA/VD+VA where: • cD(t)—compound concentration in donor well at time t.
Recovery of compounds from donor and acceptor wells (mass retention) was calculated as shown in the equation below. Data were only accepted when recovery exceeded 70%. (3) R=1−cDt∗ VD+cAt∗ VA/c0∗ VD where: • R—mass retention (%); • cA(t)—compound concentration in acceptor well at time t; • cD(t)—compound concentration in donor well at time t; • c0—initial compound concentration in donor well; • VD—donor well volume; • VA—acceptor well volume.

[2] = In vitro cytotoxicity with L-6 cells (Alamar Blue); assay type: cell-based, rat
Protocol: (§1) All newly synthesized compounds were tested for their antiplasmodial activity against the chloroquine-sensitive strain Plasmodium falciparum NF54. Cytotoxicity was determined using rat skeletal myofibroblasts (L-6 cells). As standards chloroquine and podophyllotoxin were used.
(§2) In vitro cytotoxicity was determined using a primary cell line of rat skeletal myofibroblasts. The assay was performed in 96-well microtiter plates, each well containing 0.1 mL of RPMI 1640 medium, supplemented with 0.1% L-glutamine (200 mM) and 10% fetal bovine serum, as well as 4000 L-6 cells. Serial drug dilutions of 11 3-fold dilution steps (covering a range from 100–0.002 µg/mL) were prepared. After 70 h of incubation time, the plates were inspected under an inverted microscope to ensure sterile conditions and growth of the controls. […] Podophyllotoxin (Sigma P4405) was used as control.

CYP3A4 = target: T1, CYP3A4 (Homo sapiens, UniProt P08684); assay: Cytochrom P450 3A4 inhibition assay (P450-Glo, luciferin-IPA); assay type: in vitro ADME; conditions: recombinant human CYP3A4 Supersomes (+ oxidoreductase + b5), probe luciferin-IPA, stock solutions diluted to 20 µM, pH 7.4, triplicate
T1 construct: purchased Corning, Glendale, AZ, USA
T1 sequence (P08684 2-503 limits assumed): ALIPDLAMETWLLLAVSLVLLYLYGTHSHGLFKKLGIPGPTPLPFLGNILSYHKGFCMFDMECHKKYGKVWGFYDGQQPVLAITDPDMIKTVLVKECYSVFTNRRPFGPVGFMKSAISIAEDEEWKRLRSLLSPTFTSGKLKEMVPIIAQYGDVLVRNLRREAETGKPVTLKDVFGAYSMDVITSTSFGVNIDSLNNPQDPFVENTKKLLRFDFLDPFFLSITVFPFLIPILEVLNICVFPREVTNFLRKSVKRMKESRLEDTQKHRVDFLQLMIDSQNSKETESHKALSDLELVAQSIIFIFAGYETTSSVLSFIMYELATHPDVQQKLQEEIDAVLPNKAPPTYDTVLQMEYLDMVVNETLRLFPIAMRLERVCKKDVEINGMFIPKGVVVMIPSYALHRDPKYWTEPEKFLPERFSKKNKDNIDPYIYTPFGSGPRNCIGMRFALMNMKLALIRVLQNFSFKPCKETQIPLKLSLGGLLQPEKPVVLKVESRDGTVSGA
Protocol: The CYP3A4 inhibition assay was performed using 96-well White Plates (Greiner Bio-One) at a pH of 7.4. […] Stock solutions were further diluted to a final concentration of 20 µM using water (HPLC grade). The luciferin IPA stock solution (3 mM) was diluted to a final concentration of 0.3 mM using water (HPLC grade). The CYP3A4 reaction mixture was prepared by mixing water (HPLC grade) with potassium phosphate buffer (1 M), luciferin IPA (0.3 mM) and CYP3A4 membrane (1 pmol/µL). The control reaction mixture was prepared using water (HPLC grade), potassium phosphate buffer (1 M), luciferin IPA (0.3 mM) and membrane without CYP activity (1 pmol/µL). Solutions A and B of the NADPH regeneration system were mixed and HPLC grade water was added. The reconstituted luciferin detection reagent was prepared by mixing the reconstituted buffer with esterase with the luciferin detection reagent. Then, solutions of test compounds and standard were added to the wells of the 96-well White Plate, each was tested in triplicate. The CYP3A4 reaction mixture was added to each well and the plate was incubated for 10 min at room temperature. After that, the NADPH regeneration system was added, inducing the reaction followed by an incubation time of 10 min at ambient temperature. By adding the reconstituted luciferin detection reagent, the reaction was terminated, and a luminescent signal was formed. Luminescence was measured by a SpectraMax M3 UV plate reader (Molecular Devices). The relative light units (RLU) were received from a calibration curve with beetle luciferin. […] The CYP3A4 inhibition (%) was calculated from the RLU.

P. falciparum NF54 = assay: In vitro microplate assay against P. falciparum NF54 (3H-hypoxanthine incorporation, erythrocytic stages); assay type: cell-based, Plasmodium falciparum
Protocol: as §1
In vitro activity against erythrocytic stages of P. falciparum was determined with a ^3H-hypoxanthine incorporation assay, using the chloroquine sensitive NF54 strain [44]. Chloroquine (Sigma C6628) was used as standard. Test compounds were dissolved in DMSO at 10 mg/mL and added to parasite cultures incubated in RPMI 1640 medium without hypoxanthine, supplemented with HEPES (5.94 g/L, NaHCO3 (2.1 g/L), neomycin (100 U/mL), Albumax (5 g/L) and washed human red blood cells A^+ at 2.5% hematocrit (0.3% parasitemia). Serial drug dilutions of 11 3-fold dilution steps (covering a range from 100–0.002 µg/mL) were prepared. The 96-well plates were incubated at a humidified atmosphere at 37 °C; 4% CO2, 3% O2, 93% N2. After 48 h, 0.05 mL of ^3H-hypoxanthine (=0.5 µCi) was added to each well. The plates were incubated for another 24 h under the same conditions. Then, the plates were harvested with a Betaplate cell harvester (Wallac, Zurich, Switzerland). The red blood cells were transferred onto glass fiber filter and washed with distilled water. The dried filters were inserted into a plastic foil with 10 mL of scintillation fluid and counted in a Betaplate liquid scintillation counter. IC50 values were determined from sigmoidal inhibition curves by linear regression using Microsoft Excel. Chloroquine was used as control.

L-6 cells = assay: In vitro cytotoxicity with L-6 cells (Alamar Blue); assay type: cell-based, rat
Protocol: as §1, §2

[3] = rat, Cytotoxicity L-6 Cells IC50
[4] = Plasmodium falciparum, NF54, chloroquine-sensitive strain NF54, blood stages, average of four determinations, read-out: P.f. NF54 IC50
[5] = chloroquine-sensitive strain NF54, blood stages, average of four determinations, read-out: P.f. NF54 IC50
[6] = rat skeletal myofibroblasts, average of four determinations, read-out: Cytotoxicity L-6 Cells IC50

Row | SMILES | Papp at 5 h, 200 µM [1] [×10⁻⁶ cm/s] | IC50 at 72 h [2, 3] [µM] | inhibition at 10 min, 20 µM (CYP3A4) [%] | pIC50 (P. falciparum NF54; [4]) | also measured
1 | CC(C)(C)OC(=O)N1CCN(c2cccc(NC(=O)c3cccc(C(F)(F)F)c3Oc3ccc(F)cc3)c2)CC1 [Compound 36, tert-Butyl-4-{3-[2-(4-fluorophenoxy)-3-(trifluoromethyl)benzamido]phenyl}piperazine-1-carboxylate] | 6.17 | 124 | 96 | 5.48 | –
2 | CC(=O)Nc1ccc(Oc2c(C(=O)Nc3ccccc3N3CCN(C(=O)OC(C)(C)C)CC3)cccc2C(F)(F)F)cc1 [Compound 8, tert-Butyl-4-{2-[2-(4-acetamidophenoxy)-3-(trifluoromethyl)benzamido]phenyl}piperazine-1-carboxylate] | 4.06 | 73 | 99 | 5.94 to 5.99 | pIC50 (P. falciparum NF54; [5]): 5.94
3 | Nc1cccc(NC(=O)c2cccc(C(F)(F)F)c2Oc2ccc(F)cc2)c1 [Compound 50, N-(3-Aminophenyl)-2-(4-fluorophenoxy)-3-(trifluoromethyl)benzamide] | 18.4 | 104 | – | 4.29 | pIC50 (P. falciparum NF54; [5]): 4.29
4 | CC(C)(C)OC(=O)N1CCN(c2ccccc2NC(=O)c2cccc(C(F)(F)F)c2)CC1 [Compound 7, tert-Butyl-4-{2-[3-(trifluoromethyl)benzamido]phenyl}piperazine-1-carboxylate] | 0.08 | 113 | – | 5.43 | –
5 | CC(C)(C)OC(=O)Nc1ccccc1NC(=O)c1cccc(C(F)(F)F)c1Oc1ccc(F)cc1 [Compound 13, tert-Butyl-N-{2-[2-(4-fluorophenoxy)-3-(trifluoromethyl)benzamido]phenyl}carbamate] | 8.72 | – | 90 | 5.72 | –
6 | CC(C)(C)OC(=O)N1CCN(c2ccccc2NC(=O)c2cccc(C(F)(F)F)c2Oc2ccccc2)CC1 [Compound 6, tert-Butyl-4-{2-[2-phenoxy-3-(trifluoromethyl)benzamido]phenyl}piperazine-1-carboxylate] | 3 | – | 87 | 5.94 to 5.99 | IC50 at 72 h ([2]; rat, rat skeletal myofibroblasts, average of four determinations, read-out: Cytotoxicity L-6 Cells IC50): 128 µM; pIC50 (P. falciparum NF54; [5]): 5.99
7 | CC(C)(C)OC(=O)N1CCN(c2ccc(NC(=O)c3cccc(C(F)(F)F)c3Oc3ccc(F)cc3)cc2)CC1 [Compound 37, tert-Butyl-4-{4-[2-(4-fluorophenoxy)-3-(trifluoromethyl)benzamido]phenyl}piperazine-1-carboxylate] | 0.09 | 124 | 93 | 6.57 | –
8 | CC(=O)N1CCN(c2ccccc2NC(=O)c2cccc(C(F)(F)F)c2Oc2ccc(F)cc2)CC1 [Compound 17, N-[2-(4-Acetylpiperazin-1-yl)phenyl]-2-(4-fluorophenoxy)-3-(trifluoromethyl)benzamide] | 10.1 | 27.1 | – | 5.60 | –
9 | NC(=O)N1CCN(c2ccccc2NC(=O)c2cccc(C(F)(F)F)c2Oc2ccc(F)cc2)CC1 [Compound 21, N-[2-(4-Carbamoylpiperazin-1-yl)phenyl]-2-(4-fluorophenoxy)-3-(trifluoromethyl)benzamide] | 7.44 | 31.8 to 35.4 | – | – | pIC50 (L-6 cells; rat, 72 h): 4.45
10 | COc1cc([C@@H]2c3cc4c(cc3[C@H](O)[C@H]3COC(=O)[C@H]23)OCO4)cc(OC)c1OC [POD, podophyllotoxin, reference compound] | – | – | – | – | pIC50 (L-6 cells; [6]): 7.92
11 | CN(C)C(=O)N1CCN(c2ccccc2NC(=O)c2cccc(C(F)(F)F)c2Oc2ccc(F)cc2)CC1 [Compound 22, N-{2-[4-(N,N-Dimethylcarbamoyl)piperazin-1-yl]phenyl}-2-(4-fluorophenoxy)-3-(trifluoromethyl)benzamide] | – | 20.2 | – | 5.64 | –
12 | CCN(CC)CCCC(C)Nc1ccnc2cc(Cl)ccc12 (stereo not drawn) [CQ, chloroquine, reference compound] | – | – | – | – | IC50 at 72 h [2, 6]: 90.9 µM; pIC50 (P. falciparum NF54; Plasmodium falciparum, NF54, read-out: P.f. NF54 IC50): 8.05
13 | Nc1ccc(NC(=O)c2cccc(C(F)(F)F)c2Oc2ccc(F)cc2)cc1 [Compound 51, N-(4-Aminophenyl)-2-(4-fluorophenoxy)-3-(trifluoromethyl)benzamide] | 12.9 | 130 | 88 | 4.29 | pIC50 (P. falciparum NF54; [5]): 4.25
14 | Nc1ccccc1NC(=O)c1cccc(C(F)(F)F)c1Oc1ccc(F)cc1 [Compound 14, N-(2-Aminophenyl)-2-(4-fluorophenoxy)-3-(trifluoromethyl)benzamide] | 11.4 | 129 | – | – | –
15 | CC(C)(C)C(=O)N1CCN(c2ccc(NC(=O)c3cccc(C(F)(F)F)c3Oc3ccccc3)cc2)CC1 [Compound 55, N-{4-[4-(2,2-Dimethylpropanoyl)piperazin-1-yl]phenyl}-2-phenoxy-3-(trifluoromethyl)benzamide] | 11.2 | 89.8 | 60 | 5.33 | –
16 | Cn1c(=O)c2c(ncn2C)n(C)c1=O [caffeine, reference compound] | 8 | – | – | – | –

Source: paper PMC8625693, “Synthesis and Structure-Activity Relationships of New 2-Phenoxybenzamides with Antiplasmodial Activity” (Pharmaceuticals, 2021)
